Earlier results as cited in patent US20240139272A1, “USE OF A SPEARMINT EXTRACT FOR RETINA NEUROTROPHISM” (KEMIN INDUSTRIES, INC., priority 2022, published 2024).
Like-named read-outs stand apart in the source and are kept apart here.

System: male Wistar rats
Conditions: for carrageenan-induced increase in paw volume (FIG. 1): 3 and 6 hours, spearmint extract at all doses, RA at the high dose (50 mg/kg), indomethacin 10 mg/kg

Structure (SMILES)	paw volume increase compared to baseline (10 mg/kg intraperitoneal, 3 hours post-injection of carrageenan)	paw volume increase compared to baseline (10 mg/kg intraperitoneal, 6 hours post-injection of carrageenan)	carrageenan-induced increase in paw volume (FIG. 1)	paw volume increase compared to baseline (15 mg/kg intraperitoneal, 3 hours)	paw volume increase compared to baseline (15 mg/kg intraperitoneal, 6 hours)	paw volume increase compared to baseline (50 mg/kg intraperitoneal, 3 hours)	paw volume increase compared to baseline (50 mg/kg intraperitoneal, 6 hours)
COc1ccc2c(c1)c(CC(=O)O)c(C)n2C(=O)c1ccc(Cl)cc1 [Indomethacin]	6%	3%	substantially attenuated	–	–	–	–
O=C(/C=C/c1ccc(O)c(O)c1)O[C@H](Cc1ccc(O)c(O)c1)C(=O)O [rosmarinic acid]	–	–	substantially attenuated	20%	10%	7%	5%
